Paper PMC5604080, “Genetic and Biochemical Characterization of 2-Chloro-5-Nitrophenol Degradation in a Newly Isolated Bacterium, Cupriavidus sp. Strain CNP-8” (Frontiers in Microbiology, 2017)

Legend:
[1] = molecular target: T1, MnpC (H6-MnpC) (Cupriavidus sp. CNP-8, UniProt A0A291LMA7); assay: spectrophotometric turnover, product with λmax […] nm; type: biochemical; settings: structure analog used in place of unstable aminohydroquinone
T1 construct: full-length, pET-28a NdeI-XhoI, His6-tagged (H6-MnpC), E. coli Rosetta(DE3)pLysS, Ni-NTA purified, about 35 kDa, single-subunit dioxygenase
T1 sequence (A0A291LMA7 1-316): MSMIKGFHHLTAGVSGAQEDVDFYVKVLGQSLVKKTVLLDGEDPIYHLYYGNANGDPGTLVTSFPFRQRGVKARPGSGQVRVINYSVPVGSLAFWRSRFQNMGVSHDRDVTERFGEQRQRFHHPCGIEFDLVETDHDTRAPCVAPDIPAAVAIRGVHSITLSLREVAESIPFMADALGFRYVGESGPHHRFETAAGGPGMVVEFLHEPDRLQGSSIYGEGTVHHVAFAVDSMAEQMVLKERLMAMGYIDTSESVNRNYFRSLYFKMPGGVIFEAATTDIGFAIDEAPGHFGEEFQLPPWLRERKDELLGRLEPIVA

[2] = tested on: O=[N+]([O-])c1ccc(Cl)c(O)c1; assay: purified protein; type: biochemical, Cupriavidus sp. CNP-8; settings: 0.2 mM NADPH, 50 mM phosphate pH 7.5
[3] = tested on: O=[N+]([O-])c1cccc(O)c1; assay: purified protein; type: biochemical, Cupriavidus sp. CNP-8; settings: 0.2 mM NADPH, 50 mM phosphate pH 7.5

Compound | spectrophotometric turnover, product with λmax 320 nm [1] | Km [2] [µM] | Km [3] [µM]
Oc1ccc(O)c(Cl)c1 [chlorohydroquinone] | H6-MnpC catalyzed rapid degradation of both CHQ and HQ |  | 
Oc1ccc(O)cc1 [hydroquinone] | H6-MnpC catalyzed rapid degradation of both CHQ and HQ |  | 
MnpA (H6-MnpA) (Cupriavidus sp. CNP-8) |  | 16.3 ± 2.87 | 3.4 ± 1.63
